Source: patent US20170306409A1, “CANCER PATIENT SELECTION FOR ADMINISTRATION OF WNT SIGNALING INHIBITORS USING RNF43 MUTATION STATUS” (NOVARTIS AG, priority 2012, published 2017)

Assays:
Axin2, YAPC = assay: Axin2 qPCR assay (pathway inhibition); format: cell-based, human
Description: For reverse transcription and quantitative PCR (qPCR), total RNA was extracted from cells or tumors using the RNeasy Plus Mini Kit (Qiagen). 1 μg of RNA were reverse transcribed with Taqman Reverse Transcription Reagents (Applied Biosystems) according to the manufacturer's instruction. Quantitative PCR was performed in 12 μl reactions consisting of 0.6 μl of 20× Taqman probe and PCR primer mix, 6 μl 2× Taqman FAST Advanced Master Mix (Applied Biosystems), and 5.4 μl diluted cDNA template. The thermocycling conditions utilized were 20 seconds at 95° C., followed by 40 cycles of 1 second at 95° C. and 20 seconds at 60° C. All experiments were performed in quadruplicates. Gene expression analysis was performed using the comparative ΔΔCT method and normalized with the housekeeping gene GUSB or 18S. The Taqman probes were purchased from Applied Biosystems.
Consistent with this observation, treatment of Porcupine inhibitor IWP2 or LGK974 increased the cell surface level of Frizzled and decreased the mRNA levels of AXIN2 and RNF43. See, FIG. 4(b). […] YAPC cells were treated with 3 μM of IWP-2 or 1 μM of LGK974, and subjected to flowcytometry analysis for membrane Frizzled expression.

HPAFII cells = assay: cell colony formation assay (FIG. 1); format: cell-based, human
Description: (§1) FIG. 1(a) is a photograph showing a HPAFII cell colony formation assay in the presence of LGK974 at two concentrations (300 nM and 1 μM). 1300 cells were seeded into media with indicated treatment and the media were replaced every 5 days until crystal violet staining at day 14. […] FIG. 1(b) is a photograph showing PK1 (having a functional RNF43 protein) and HPAFII (having a nonfunctional RNF43 protein) cell colony formation assays in the presence of 1 μM LGK974 alone or together with daily addition of 10% Wnt3a conditioned media (CM).

PK1 = assay: cell colony formation assay (FIG. 1); format: cell-based, human; conditions: PK1 (RNF43 wild-type); 1 μM LGK974; 10 day assay
Description: as §1

RNF43 mutant cell lines = assay: EdU proliferation assay; format: cell-based, human; conditions: 1 μM LGK974, 3 days
Description: Further, LGK974 induced the expression of differentiation marker MUC2, MUC5A/C in RNF43 mutant cells. LGK974 blocked EDU incorporation in RNF43 mutant cell lines, so Wnt inhibition in these cells leads to cell cycle arrest. LGK974-induced growth inhibition and cellular differentiation of RNF43 mutant cells are also obvious using Ki67 staining (anti-Ki67 (SP6) from Vector Laboratories, Burlingame, Calif., USA 94010) and Alcian Blue staining.
For the EdU proliferation assay, cells were plated in growth medium in 96 well plate at a density of 6000-12,000 cells per well, and treated with DMSO or 1 μM LGK974. After 3 days, the cells were treated with fresh growth medium containing 20 μM EdU, which was included in the Click-iT EdU Alexa Fluor 488 HCS assay kit (Invitrogen), and the plate was incubated for 2 hr at 37° C. in a humidified atmosphere containing 5% CO2. Cells were fixed with final 4% paraformaldehyde for 30 min, washed with PBS, permeabilized, and stained with 0.75% TritonX-100 and 50 μg/ml Hoechst in PBS for 30 min. After wash, the cells were proceeded EdU detection according to the instruction of Click-iT EdU assay kit. Triplet wells were performed for each condition.

Capan-2 xenografts = assay: PDAC xenograft model, in vivo efficacy and pharmacodynamics; set-up: species or system mice
From the text: (§2) To analyze the role of Wnt pathway activation in maintenance of RNF43 mutant pancreatic tumors in vivo, we utilized two PDAC xenograft models (HPAFII and Capan-2).
(§3) For in vivo efficacy and pharmacodynamic studies, cells were harvested at a density of 95-110% confluency. 10 million cells (HPAFII) or 3 million cells (Capan-2) mixed 50:50 with BD matrigel matrix basement membrane (Matrigel) (BD Biosciences) were subcutaneously implanted into the upper right supra-axillary region of nu/nu (Harlan) (HPAFII) or scid.bg (Harlan) (Capan-2) mice. Tumors were monitored twice weekly by calipering and tumor volumes (TV) were calculated using the ellipsoid formula: TV(mm^3)=((l×w^2)×3.14159))/6. Xenograft tumor-bearing mice were randomized to treatment groups (n=8 per group) either 14 days post tumor implant (Capan-2), when the mean tumor volume reached 223 mm^3 (range 200-250 mm^3) or 11 days post implant (HPAFII), when the mean tumor volume reached 341 mm^3 (range 272-418 mm^3). Mice were treated by oral gavage (p.o.) twice daily (BID) at a dosing volume of 10 mL/kg with either vehicle (0.5% methylcelluose (MC)/0.5% Tween 80) or a 0.65 mg/mL suspension of the fumarate salt form of LGK974 (LGK974-AE-4, free base molecular weight conversion factor 1.293) in 0.5% MC/0.5% Tween 80. In vivo doses are reported as free base equivalents. Following treatment for 14 days (HPAFII) or 35 days (Capan-2), anti-tumor activity was reported as percent treatment/control (% T/C) or % Regression (% REG) values. Anti-tumor activity was calculated using the following formula: % T/C=100 ΔΔTt/ΔCt if ΔTt≧0; or % REG=100 ΔΔTt/T0 if ΔTt<0; where: T0=mean tumor volume (TV) of the drug-treated group on the day of randomization; Tt=mean TV of the drug-treated group at study end; […]; Ct=mean TV of the control group on the final day of the study; C0=mean TV of the control group on the day of randomization; and ΔCt=C0−Ct*% T/C values in the range of 100 to 42% are interpreted to have no anti-tumor activity; % T/C values 42% and >10% are interpreted to have anti-tumor activity, % T/C values 10% or % REG≧-10% are interpreted to be tumor stasis. % REG values <-10% are interpreted as regressions. Separate, parallel cohorts of animals (n=3 per treatment and time point) were treated with vehicle or LGK974 as above to obtain tumor tissue for ex vivo analysis of pharmacodynamic markers.
(§4) Furthermore, treatment of mice bearing Capan-2 xenografts with 5 mg/kg LGK974, p.o. BID for 35 days achieved tumor stasis (T/C=5%). Consistent with the mechanism of action of LGK974, expression of the β-catenin target gene, AXIN2, was decreased in treated HPAFII and Capan-2 xenografts.

HPAFII xenografts = assay: as above; set-up: species or system mice
From the text: as §2, §3, §4

For Cc1cc(-c2ncc(CC(=O)Nc3ccc(-c4cnccn4)cn3)cc2C)ccn1 [LGK974, 2-[5-methyl-6-(2-methylpyridin-4-yl)pyridin-3-yl]-N-[5-(pyrazin-2-yl)pyridin-2-yl]acetamide], the “Pathway inhibition in Axin2 qPCR assay” value (Axin2, YAPC; YAPC) was “Yes”, the “mRNA level of AXIN2” value (Axin2, YAPC; YAPC cells, 1 μM of LGK974) was “decreased” and the colony formation (HPAFII cells; HPAFII (RNF43 mutant), 1 μM LGK974 alone) was “inhibited”. For the same molecule, the colony formation (HPAFII cells; HPAFII, 300 nM and 1 μM LGK974, crystal violet staining at day 14) was “inhibits colony formation”, the “colony formation, inhibition with exogenous Wnt3a” value (HPAFII cells; HPAFII, 1 μM LGK974 with daily addition of 10% Wnt3a conditioned media) was “partially rescued” and the colony formation (PK1) was “no sensitivity”. The EDU incorporation (RNF43 mutant cell lines) was “blocked”, the “cell cycle arrest and differentiation within the xenograft tumors” value (Capan-2 xenografts; Capan-2 xenograft tumors) was “induced cell cycle arrest and differentiation” and the “T/C (tumor stasis)” value (Capan-2 xenografts; mice bearing Capan-2 xenografts, 5 mg/kg p.o. BID for 35 days) was 5%. For the same molecule, the “expression of the β-catenin target gene AXIN2 in xenografts” value (Capan-2 xenografts; treated Capan-2 xenografts) was “decreased”, the “cell cycle arrest and differentiation within the xenograft tumors” value (HPAFII xenografts; HPAFII xenograft tumors) was “induced cell cycle arrest and differentiation” and the “T/C (tumor growth in treated relative to vehicle)” value (HPAFII xenografts; mice bearing HPAFII xenografts, 5 mg/kg p.o. BID for 14 days) was 33%. For the same molecule, the “expression of the β-catenin target gene AXIN2 in xenografts” value (HPAFII xenografts; treated HPAFII xenografts) was “decreased”.
